The values below come from patent US20240189330A1, “Compositions and Methods for Inhibiting and Treating Viral Infections” (The Regents of the University of California, priority 2021, published 2024).

“Also recorded” adds a separate entry of the source. Structures can show the parent of a compound that is named as a salt. A value given as a limit tells only on which side of the number the result lay.

The test system of data set [1] is Human rhinovirus type 16 (HRV16). Type of data set: cell-based.
The test system of data set [2] is Influenza A Virus, subtype H1N1. Format: cell-based.
The next data set deals with human mammalian cells. Particulars: cited from earlier work.

As for `COC(=O)/C=C/C(=O)OC` [DMF, dimethyl fumarate], the “HRV16 viral replication by qPCR” value in data set [1] was “minimally inhibit HRV16 replication; also recorded: little antiviral activity”. Further, the “H1N1 viral replication by qPCR” value in data set [2] is recorded as “inhibit H1N1 replication; also recorded: inhibit the replication”.

Consider `COC1=C(OC)C(=O)C(CCCCCCCCCC[P+](c2ccccc2)(c2ccccc2)c2ccccc2)=C(C)C1=O` [Mito-MES, 10-(4,5-dimethoxy-2-methyl-3,6-dioxo-1,4-cyclohexadienyl) decyl triphenylphosphonium], for which the “concentration physiologically relevant, efficacious and non-cytotoxic” value in the data set with human mammalian cells was < 2000 nM.
